Assay results: ChEMBL document CHEMBL1255325, “Plasmid-mediated qepA gene among Escherichia coli clinical isolates from Japan” (2008)
≈ marks a conversion by molar mass, not a printed value.

Legend:
[1] = test system: Escherichia coli; assay: Antimicrobial activity against Escherichia coli MRY04-1060 expressing qepA gene by agar dilution CLSI method; type: functional
[2] = test system: Escherichia coli; assay: Antimicrobial activity against Escherichia coli MRY05-3283 expressing qepA and rmtB gene by agar dilution CLSI method; type: functional
[3] = test system: Escherichia coli; assay: Antimicrobial activity against Escherichia coli isolate DH10B by agar dilution CLSI method
[4] = test system: Escherichia coli; assay: Antimicrobial activity against Escherichia coli DH10B harboring p041060 carrying qepA gene by agar dilution CLSI method; type: functional
[5] = test system: Escherichia coli; assay: Antimicrobial activity against Escherichia coli DH10B harboring p05283 carrying qepA and rmtB gene by agar dilution CLSI method; type: functional
[6] = test system: Escherichia coli; assay: Ratio of MIC for Escherichia coli DH10B harboring p041060 carrying qepA gene to MIC for Escherichia coli isolate DH10B; type: functional
[7] = test system: Escherichia coli; assay: Ratio of MIC for Escherichia coli DH10B harboring p05283 carrying qepA and rmtB gene to MIC for Escherichia coli isolate DH10B; type: functional

| Compound | MIC [1] [µg/mL] | MIC [2] [µg/mL] | MIC [3] [µg/mL] | MIC [4] [µg/mL] | MIC [5] [µg/mL] | Ratio [6] | Ratio [7] |
| --- | --- | --- | --- | --- | --- | --- | --- |
| C[C@@H](O)[C@H]1C(=O)N2C(C(=O)O)=C(SCCNC=N)C[C@H]12 [IMIPENEM ANHYDROUS] | 0.13 (≈ 0.434 µM) | 0.13 (≈ 0.434 µM) | 0.25 (≈ 0.835 µM) | – | – | – | – |
| GENTAMICIN | > 128 | > 128 | – | > 128 | > 128 | – | – |
| CCn1cc(C(=O)O)c(=O)c2cc(F)c(N3CCNCC3)cc21 [NORFLOXACIN] | > 128 | > 128 | ≤ 0.008 | 0.25 (≈ 0.783 µM) | 0.25 (≈ 0.783 µM) | 4 | 4 |
| NCC[C@H](O)C(=O)N[C@@H]1C[C@H](N)[C@@H](O[C@H]2O[C@H](CN)[C@@H](O)[C@H](O)[C@H]2O)[C@H](O)[C@H]1O[C@H]1O[C@H](CO)[C@@H](O)[C@H](N)[C@H]1O [AMIKACIN] | > 128 | > 128 | 2 (≈ 3.42 µM) | > 128 | > 128 | – | – |
| CO/N=C(\C(=O)N[C@@H]1C(=O)N2C(C(=O)O)=C(COC(C)=O)CS[C@H]12)c1csc(N)n1 [CEFOTAXIME] | 0.13 (≈ 0.285 µM) | 0.13 (≈ 0.285 µM) | 0.06 (≈ 0.132 µM) | 0.06 (≈ 0.132 µM) | 0.06 (≈ 0.132 µM) | – | – |
| CC(C)(O/N=C(\C(=O)N[C@@H]1C(=O)N2C(C(=O)[O-])=C(C[n+]3ccccc3)CS[C@H]12)c1csc(N)n1)C(=O)O [CEFTAZIDIME] | 0.5 (≈ 0.915 µM) | 0.5 (≈ 0.915 µM) | 0.25 (≈ 0.457 µM) | 0.5 (≈ 0.915 µM) | 0.5 (≈ 0.915 µM) | – | – |
| C[C@H]1COc2c(N3CCN(C)CC3)c(F)cc3c(=O)c(C(=O)O)cn1c23.C[C@H]1COc2c(N3CCN(C)CC3)c(F)cc3c(=O)c(C(=O)O)cn1c23.O [LEVOFLOXACIN] | 64 | 128 | ≤ 0.008 | – | – | – | – |
| NC[C@H]1O[C@H](O[C@H]2[C@H](O)[C@@H](O[C@H]3O[C@H](CO)[C@@H](O)[C@H](N)[C@H]3O)[C@H](N)C[C@@H]2N)[C@H](N)C[C@@H]1O [TOBRAMYCIN] | > 128 | > 128 | 0.5 (≈ 1.07 µM) | > 128 | > 128 | – | – |
